Results reported in patent publication US11319306B2, “Compositions and methods for treating neurodegenerative diseases” (Azevan Pharmaceuticals, Inc., priority 2014, dated 2022).
Where two headings read alike, the source gives them in different places.

What was measured:
[1] = target: T1, human V1a receptor (Homo sapiens, UniProt P37288); experiment: Inhibition of phosphatidylinositol turnover (V1a); type: cell-based; conditions: inhibition of vasopressin-mediated phosphatidylinositol turnover
T1 construct: host or cells: CHO cells (hV1a cell line)
Source text: The physiological effects of vasopressin are mediated through specific G-protein coupled receptors. The vasopressin V1a receptor is coupled to the Gq/G11 family of G proteins and mediates phosphatidylinositol turnover. The agonist or antagonist character of the compounds of the invention may be determined by their ability to inhibit vasopressin-mediated turnover of phosphatidylinositol by the procedure described in the following paragraphs.
Cell culture and labeling of cells.
All assays were in triplicate except for basal and 10 nM AVP (both n=6). AVP ((arginine vasopressin), Peninsula Labs, Belmont, Calif., USA (#8103)) was dissolved in 0.1N acetic acid. Test agents were dissolved in DMSO and diluted in DMSO to 200 times the final test concentration. […] The order of incubations was randomized. Incubations were initiated by removing the prelabeling medium, washing the monolayer once with 1 mL of 0.9% NaCl, and transferring the contents of the assay tubes to corresponding wells. The plates were incubated for 1 hour at 37° C. Incubations were terminated by removing the incubation medium and adding 500 μL of ice cold 5% (w/v) trichloroacetic acid and allowing the wells to stand for 15 min.
BioRad Poly-Prep Econo-Columns were packed with 0.3 mL of AG 1 X-8 100-200 formate form resin. Resin was mixed 1:1 with water and 0.6 mL added to each column. Columns were then washed with 10 mL water. Scintillation vials (20 mL) were placed under each column. For each well, the contents were transferred to a minicolumn, after which the well was washed with 0.5 mL distilled water, which was also added to the minicolumn. The columns were then washed twice with 5 mL of 5 mM myo-inositol to elute free inositol. Aliquots (1 mL) were transferred to 20 mL scintillation vials and 10 mL of Beckman Ready Protein Plus added. After the myo-inositol wash was complete, empty scintillation vials were placed under the columns, and [^3H]inositol phosphates were eluted with three additions of 1 mL 0.5 M ammonium formate containing 0.1 N formic acid. Elution conditions were optimized to recover inositol mono-, bis-, and trisphosphates, without eluting the more metabolically inert tetrakis-, pentakis-, and hexakis-phosphates. To each sample was added 10 mL of a high salt capacity scintillation fluid such as Tru-Count High Salt Capacity or Packard Hionic-Fluor. Inositol lipids were measured by adding 1 mL of 2% sodium dodecyl sulfate (SDS) to each well, allowing the wells to stand for at least 30 min., and transferring the solution to 20 mL scintillation vials, to which 10 mL Beckman Ready Protein Plus scintillation fluid was then added. Samples were counted in a Beckman LS 3801 liquid scintillation counter for 10 min. Total inositol incorporation for each well was calculated as the sum of free inositol, inositol phosphates, and inositol lipids.
Concentration-response curves for AVP and concentration-inhibition curves for test agents versus 10 nM AVP were analyzed by nonlinear least-squares curve-fitting to a 4-parameter logistic function. Parameters for basal and maximal inositol phosphates, EC50 or IC50, and Hill coefficient were varied to achieve the best fit. The curve-fitting was weighted under the assumption that the standard deviation was proportional to dpm of radioactivity.

[2] = target: T1, human V1a receptor; experiment: Human vasopressin V1a receptor binding assay (3H-AVP competition, hV1a CHO cells); conditions: for IC50: read-out: V1a Binding Affinity IC50
Procedure: Human vasopression V1a receptor binding assay. A cell line expressing the human V1a receptor in CHO cells (henceforth referred to as the hV1a cell line) was obtained from Dr. Michael Brownstein, NIMH, Bethesda, Md., USA. The hV1a cDNA sequence is described by Thibonnier et al., Journal of Biological Chemistry, 269, 3304-3310 (1994), and the expression method was the same as described by Morel et al. (1992). The hV1a cell line was grown in alpha-MEM with 10% fetal bovine serum and 250 ug/ml G418 (Gibco, Grand Island, N.Y., USA). For competitive binding assay, hV1a cells were plated into 6-well culture plate at 1:10 dilution from a confluency flask, and maintained in culture for at least two days. Culture medium was then removed, cells were washed with 2 ml binding buffer (25 mM Hepes, 0.25% BSA, 1×DMEM, PH=7.0). To each well, 990 μl binding buffer containing InM 3H-AVP was added, and followed by 10 μl series diluted Example compounds dissolved in DMSO. […] 100 nM cold AVP (Sigma) was used to assess non-specific binding. Cells were incubated for 45 minutes at 37° C., assay mixture was removed and each well was washed three times with PBS (pH=7.4). 1 ml 2% SDS was added per well and plates were let sit for 30 minutes. The whole content in a well was transferred to a scintillation vial. Each well was rinsed with 0.5 ml PBS which was then added to the corresponding vial. Scintillation fluid (Ecoscint, National Diagnostics, Atlanta, Ga.) was then added at 3 ml per vial. Samples were counted in a liquid scintillation counter (Beckman LS3801). IC50 values were calculated by Prism Curve fitting software.
All of the alkanedioic esters and amides exemplified in the foregoing examples dissolved in DMSO were tested in this assay. Binding curves were generated according to methods described by Thibonnier et al. (1994). [^3H]-AVP was added to the hV1a cell cultures followed by 10-fold dilutions of each test compound.

[3] = tested on: Adult male Long Evans rats; experiment: Light/dark shuttle box; type: in vivo, rat
Procedure: Anxiolytic Effect in the Light/Dark Shuttle Box. The light/dark shuttle box is a standard and well characterized assay for anxiolytic effects of a test compound. Rats naturally avoid the light side of the box because it is stressful. Increased time on the light side by the treatment group compared to control reflects an anxiolytic effect (Bourin and Hascoet, 2003). Adult male Long Evans rats are administered AVN251 (0.1-2 mg/kg) by oral gavage 90 min prior to testing in a light/dark shuttle box.

[4] = tested on: awake rats; experiment: Resident-intruder model of stress and aggression in rats, awake fMRI neuroimaging; type: in vivo, rat
Source text: Resident-intruder model of stress and aggression in rats. Neuroimaging is used to assess the blockade of stress/arousal with test compound compared to control. The effect of AVN251-HCl on functional circuitry was examined using the imaging method for awake rats. Additional details of the assay are described in Ferris et al. Imaging the neural circuitry and chemical control of aggressive motivation.
Male rats in the company of a female cage mate piloerect in the presence of a male intruder. Piloerection is a sign of stress and aggressive intent and is associated with activation of stress/arousal circuits in the brain. Stress circuit activation in response to an intruder male is assessed by obtaining brain scans viewed from a caudal/dorsal perspective as translucent shells. The localization of activated voxels is mapped as 3D volumes of activation, which are composed of 10 subjects each. Once fully registered and segmented, the statistical responses for each subject are averaged on a voxel-by-voxel basis. Those averaged voxels exceeding a 2.0% threshold are shown in their appropriate spatial location. Functional images are acquired on awake rats at 4.7 T.
Resident male rats from six male/female pairs are imaged while fully awake, and presented with their mate, or their mate+an intruder, a highly stressful stimulus. […] The total volume of brain activation for resident males confronted with their mate alone, mate plus intruder, and mate plus intruder in the presence of AVN251-HCl are viewed as 3D models.
Awake rats are imaged when presented with their mate, or their mate+an intruder. […] In each scan, the dark shaded areas represent activation of vasopressin receptor signaling.

[5] = 3H-AVP competition, CHO cells expressing human V1a
[6] = 3H-AVP competition, CHO cells expressing human V1a, read-out: V1a Ki

T1 sequence (P37288 whole entry): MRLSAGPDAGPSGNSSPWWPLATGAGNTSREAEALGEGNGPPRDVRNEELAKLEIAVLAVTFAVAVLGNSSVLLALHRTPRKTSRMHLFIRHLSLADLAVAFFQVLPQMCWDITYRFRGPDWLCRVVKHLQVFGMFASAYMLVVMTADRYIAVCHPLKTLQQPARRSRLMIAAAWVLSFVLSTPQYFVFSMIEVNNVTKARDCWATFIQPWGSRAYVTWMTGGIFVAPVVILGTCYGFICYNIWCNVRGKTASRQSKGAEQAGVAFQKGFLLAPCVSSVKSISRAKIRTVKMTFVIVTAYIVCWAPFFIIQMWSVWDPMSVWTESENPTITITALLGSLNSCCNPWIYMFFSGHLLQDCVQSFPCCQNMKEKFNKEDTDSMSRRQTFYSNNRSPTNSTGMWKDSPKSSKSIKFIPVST

## O=C(NCc1cccc(C(F)(F)F)c1)[C@H](CCC(=O)N1CCN(CCc2ccccc2)CC1)N1C(=O)[C@@H](N2C(=O)OC[C@@H]2c2ccccc2)[C@H]1C=Cc1ccccc1 (single isomer, unassigned) [Example 35]
[1]
  agonist or antagonist character: vasopressin V1a antagonists

## O=C(NCc1cccc(C(F)(F)F)c1)C(CCC(=O)N1CCC(N2CCCCC2)CC1)N1C(=O)C(N2C(=O)OCC2c2ccccc2)C1C=Cc1ccccc1 (single isomer, unassigned) [Example 88]
[1]
  agonist or antagonist character: vasopressin V1a antagonists
[2]; [5]
  IC50: 2.4 nM
[2]; [6]
  Ki: 1.45 nM

## O=C(NCc1cccc(C(F)(F)F)c1)C(CCC(=O)N1CCN(C2CCCCC2)CC1)N1C(=O)C(N2C(=O)OCC2c2ccccc2)C1C=Cc1ccccc1 (single isomer, unassigned) [Example 110]
[1]
  agonist or antagonist character: vasopressin V1a antagonists

## O=C(NCc1cccc(C(F)(F)F)c1)C(CC(=O)N1CCC(N2CCCCC2)CC1)N1C(=O)C(N2C(=O)OCC2c2ccccc2)C1C=Cc1ccccc1 (stereo not shown) [Example 44]
[1]
  agonist or antagonist character: vasopressin V1a antagonists
[2]; [5]
  IC50: 3.1 nM
[2]; [6]
  Ki: 1.89 nM

## O=C(NCc1cccc(C(F)(F)F)c1)C(CC(=O)N1CCC(N2CCCCC2)CC1)N1C(=O)C(N2C(=O)OCC2c2ccccc2)C1C=Cc1ccccc1 (stereo not shown) [Example 133]
[1]
  agonist or antagonist character: vasopressin V1a antagonists
[2]; [5]
  IC50: 2.43 nM
[2]; [6]
  Ki: 1.49 nM

## CN(Cc1cccc(C(F)(F)F)c1)C(=O)[C@@H](CC(=O)N1CCC(N2CCCCC2)CC1)N1C(=O)[C@@H](N2C(=O)OC[C@@H]2c2ccccc2)[C@H]1/C=C/c1ccccc1 [Example 225, 2(R)-[[4-(Piperidinyl)piperidinyl]carbonylmethyl]-2-[3(S)-(4(S)-phenyloxazolidin-2-on-3-yl)-4(R)-(2-styryl)azetidin-2-on-1-yl]acetic acid N-methyl-N-(3-trifluoromethylbenzyl)amide]
[3]; 0.1-2 mg/kg oral gavage 90 min prior to testing
  anxiety compared to vehicle: dose dependent decrease in anxiety
[3]; 1 or 2 mg/kg
  light-dark entries (FIG. 6C): more light-dark entries
[3]; 1 or 2 mg/kg, p<0.01
  time in the dark (FIG. 6B): less time in the dark
  time in the light (FIG. 6A): more time in the light
[4]; amygdala, cortex, hippocampus, thalamus, mate+intruder
  activation of vasopressin receptor signaling in brain scans (FIG. 4 vs FIG. 3): lower activation of vasopressin receptor signaling than the untreated controls
[4]; pretreatment 5 mg/kg 90 minutes before test session, mate + intruder, listed as AVN251
  stress/arousal response in amygdala, cortex, hippocampus and thalamus: blocked the stress/arousal response
[2]; [6]
  Ki: 0.66 nM
[2]; receptor selectivity table, read-out: inhibition data Ki, V1a
  Ki: 0.66 nM

## O=C(N[C@@H]1CCCc2ccccc21)[C@H](CCC(=O)N1CCN(C2CCCCC2)CC1)N1C(=O)[C@@H](N2C(=O)OC[C@@H]2c2ccccc2)[C@H]1/C=C/c1ccccc1Cl [Example 250]
[2]; [5]
  IC50: 6.5 nM
[2]; [6]
  Ki: 4 nM

## O=C(N[C@@H]1CCCc2ccccc21)[C@H](CCC(=O)N1CCN(C2CCCCC2)CC1)N1C(=O)[C@@H](N2C(=O)OC[C@@H]2c2cccc(Cl)c2)[C@H]1/C=C/c1cccc(Cl)c1 [Example 251]
[2]; [5]
  IC50: 0.5 nM
[2]; [6]
  Ki: 0.3 nM

## O=C(N[C@@H]1CCCc2ccccc21)[C@H](CCC(=O)N1CCN(C2CCCCC2)CC1)N1C(=O)[C@@H](N2C(=O)OC[C@@H]2c2ccccc2)[C@H]1/C=C/c1cc(Cl)cc(Cl)c1 [Example 252]
[2]; [5]
  IC50: 1.8 nM
[2]; [6]
  Ki: 1.1 nM

## CC(NC(=O)C(CC(=O)N1CCC(N2CCCCC2)CC1)N1C(=O)C(N2C(=O)OCC2c2ccccc2)C1C=Cc1cccc(Cl)c1)c1ccccc1 (stereo not shown) [Example 559]
[2]; [5]
  IC50: 0.12 nM
[2]; [6]
  Ki: 0.073 nM

## CC(NC(=O)C(CC(=O)N1CCC(CN2CCCCC2)CC1)N1C(=O)C(N2C(=O)OCC2c2ccccc2)C1C=Cc1ccccc1)c1ccccc1 (stereo not shown) [Example 601]
[2]; [5]
  IC50: 1 nM
[2]; [6]
  Ki: 0.62 nM

## CC(NC(=O)C(CC(=O)N1CCC(N2CCCCC2)CC1)N1C(=O)C(N2C(=O)OCC2c2ccccc2)C1C=Cc1cccc(Br)c1)c1ccccc1 (stereo not shown) [Example 606]
[2]; [5]
  IC50: 0.53 nM
[2]; [6]
  Ki: 0.32 nM

## CC(NC(=O)C(CC(=O)N1CCC([N+]2([O-])CCCCC2)CC1)N1C(=O)C(N2C(=O)OCC2c2ccccc2)C1C=Cc1ccccc1)c1ccccc1 (stereo not shown) [Example 672]
[2]; [6]
  Ki: 1.1 nM

## O=C(NCc1ccccc1F)C(CC(=O)N1CCC(N2CCCCC2)CC1)N1C(=O)C(N2C(=O)OCC2c2ccccc2)C1C=Cc1ccccc1 (stereo not shown) [Example 677]
[2]; [6]
  Ki: 3 nM

## CNCCC(Oc1ccc(C(F)(F)F)cc1)c1ccccc1 (stereo not shown) [fluoxetine, reference compound]
[4]; presentation of novel receptive female
  sexual motivation / mesocorticolimbic dopamine reward system activation: markedly diminishes activation of this circuit
[4]; resident male rats, 5 mg/kg oral gavage
  stress circuit activation (BOLD), mate plus intruder: decreased activation of both the stress circuits and the mesocorticolimbic dopamine reward system

## (2S)-[(4-cyclohexylpiperazinyl)carbonylethyl]-2-[3(S)-(4(S)-phenyloxazolidin-2-on-3-yl)-4(R)-(2-phenyleth-1-yl)azetidin-2-on-1-yl]acetic acid N—[(R)-1,2,3,4-tetrahydronaphth-1-yl]amide [Example 236A]
[2]; [5]
  IC50: 9 nM
[2]; [6]
  Ki: 5.5 nM
